In brackets after ≈: the same amount, converted by molar mass. Like-named read-outs stand apart in the source and are kept apart here. Blank lines part the entries; values can stand above or below the compound they belong to.
What was measured:
Assay type in all cases: cell-based
[1] = system: Candida albicans (American Type Culture Collection strain 44506); test: Broth dilution assay (MIC); settings: read-out: Minimum Inhibitory Concentration (MIC)
Procedure: (§1) The antifungal activity of neopeltolide against Candida albicans (American Type Culture Collection strain 44506) was determined through the use of both agar diffusion and broth dilution assays.
Broth dilution assays were performed as standard 96-well microtiter assays in a total volume of 50 μl with a seeding density of 10^3 cells/ml. The concentration range for neopeltolide ranged from 5 to 0.4 μg/ml as two-fold dilutions.

[2] = system: Candida albicans (American Type Culture Collection strain 44506); test: Agar (disk) diffusion assay
Procedure: as §1
Agar diffusion assays were performed using Sabouraud Dextrose agar plates seeded with the test microbe at 10^5/ml. Disks (6.35 mm, Schliecher and Schuell) were impregnated with 25 μg of neopeltolide, allowed to dry and then placed on the agar surface. After incubation at 37° C. for 24 hours the zones of growth inhibition were determined. A control disk containing 100 IU nystatin was run on the same plate as the neopeltolide: the zone of inhibition was 28 mm.

[3] = system: P388 murine leukemia; test: In vitro proliferation of P388 tumor cells (MTT); settings: Mus musculus, 48-hr exposure
Procedure: (§2) Neopeltolide was analyzed as to its effect on the proliferation of A549 human lung adenocarcinoma, NCI-ADR-RES (Formerly MCF-7/ADR) human breast cancer and P388 murine leukemia cell lines. P388 cells were obtained from Dr. R. Camalier, National Cancer Institute, Bethesda, Md., and A549 and NCI-ADR-RES cells were obtained from American Type Culture Collection, Rockville, Md.
(§3) All cell lines are maintained in Roswell Park Memorial Institute (RPMI) medium 1640 supplemented with 100 U/mL penicillin 100 μg/ml streptomycin, 60 μg/ml L-glutamine, 18 mM HEPES, 0.05 mg/mL gentamycin and 10% fetal bovine serum. […]
(§4) A volume of 75 μl of warm growth media containing 5 mg/ml MTT is added to each well, cultures returned to the incubator, and left undisturbed for 3 hours. To spectrophotometrically quantitate formation of reduced formazan, plates are centrifuged (900×g, 5 minutes), culture fluids removed by aspiration, and 200 μl of acidified isopropanol (2 ml concentrated HC/liter isopropanol) added per well. The absorbance of the resulting solutions is measured at 570 nm with a plate reader (Spectra II Tecan Laboratories). […]
(§5) The two standard drug controls (indicated above) are included in each assay to monitor the drug sensitivity of each of the cell lines and IC50 values are determined for each drug-cell combination.

[4] = system: A549 human lung adenocarcinoma; test: In vitro proliferation of A549 tumor cells (MTT); settings: 72-h exposure
Procedure: as §2, §3, §4, §5

[5] = system: NCI-ADR-RES (Formerly MCF-7/ADR) human breast cancer; test: In vitro proliferation of NCI-ADR-RES tumor cells (MTT); settings: 72-h exposure, read-out: NCIADR-RES IC50
Procedure: as §2, §3, §4, §5

MIC ([1]; C. albicans, 96-well broth dilution, 37° C., 24 hours, complete inhibition of growth): 0.62 mg/L (≈ 4.8 µM)
SMILES: Nc1nc(=O)[nH]cc1F [5-fluorocytosine, reference compound]

SMILES: C[C@@H]1[C@H](O)[C@@H](C)/C=C/C=C/CC/C=C/C=C/C=C/C=C/C(O[C@H]2O[C@H](C)[C@@H](O)[C@H](N)[C@@H]2O)CC2O[C@](O)(CC(O)C(O)CCC(O)CC(O)CC(O)CC(=O)O[C@H]1C)CC(O)C2C(=O)O (stereo partly shown) [nystatin, reference compound]
zone of inhibition ([2]; control disk containing 100 IU, C. albicans, 37° C., 24 hours): 28 mm

SMILES: CCCC1CC(OC)CC(C)CC2CC(OC(=O)/C=C\CCc3coc(/C=C\CNC(=O)OC)n3)CC(CC(=O)O1)O2 (stereo not shown) [Neopeltolide (I), Neopeltolide]
IC50 [3]: 0.56 nM
zone of inhibition at 25 µg/disc ([2]; Candida albicans, 24 h, read-out: growth inhibitory zone): 17 mm
IC50 [4]: 1.17 nM
IC50 [5]: 5.1 nM
MIC ([1]; 24 h): 0.625 mg/L (≈ 1.06 µM)
